The results in this text go back to patent publication US11318116B2, “Stable amorphous form of sacubitril valsartan trisodium complex and processes for preparation thereof” (Laurus Labs Limited, priority 2016, dated 2022).

The series is described as follows: Stability study for amorphous trisodium sacubitril valsartan complex (HPLC purity and PXRD on storage). In kind it is physicochemical. The source says: In another embodiment, the present invention provides a method of packing amorphous form of sacubitril valsartan trisodium complex, comprising: placing amorphous form of sacubitril valsartan trisodium complex in LDPE bag under nitrogen atmosphere; placing the product containing Low-density polyethylene (LDPE) bag in a second LDPE bag under nitrogen atmosphere; keeping the silica gel packet between two LDPE bags and sealing; placing the second sealed bag in a triple laminated bag and sealing.
The X-Ray powder diffraction can be measured using PANalytical X'per^3pro X-ray powder Diffractometer equipped with a Cu-anode ([λ]=1.54 Angstrom), X-ray source operated at 45 kV, 40 mA. Two-theta calibration is performed using an NIST SRM 640c Si standard. The sample was analyzed using the following instrument parameters: measuring range=3-45° 20; step size=0.01°; and Time per step=23 sec.
In another embodiment, the present invention provides Sacubitril sodium and amorphous form of sacubitril-valsartan trisodium complex obtained by the above process, as analyzed using high performance liquid chromatography (“HPLC”) with the conditions are tabulated below:
The amorphous form of trisodium sacubitril valsartan complex is packed in LDPE bag under nitrogen atmosphere and placed in another LDPE bag, filled with nitrogen and kept silica gel packet between the bags, tied with strip seal. Kept the bag in triple laminated sunlight barrier bag and sealed with heat sealer. The stability of the samples was tested at 25±2° C./60±5% RH and 40±2° C./75±5% RH respectively.

Setting [1] is: 25 ± 2° C./60 ± 5% RH, 1st month.
Where [2] appears, read: 25 ± 2° C./60 ± 5% RH, 3rd month.
Setting [3] is: 25 ± 2° C./60 ± 5% RH, 6th month.
Setting [4] is: 40 ± 2° C./75 ± 5% RH, 1st month.
Setting [5] is: 40 ± 2° C./75 ± 5% RH, 3rd month.
Where [6] appears, read: 40 ± 2° C./75 ± 5% RH, 6th month.

Consider sacubitril valsartan trisodium complex, for which the “HPLC purity (%)” value under setting [1] was 99.95%; the “HPLC purity (%)” value under setting [2] is reported as 99.94%; the “HPLC purity (%)” value under setting [3] was 99.93%; the “HPLC purity (%)” value (25 ± 2° C./60 ± 5% RH, Initial) was 99.94%; the “HPLC purity (%)” value under setting [4] was 99.95%; the “HPLC purity (%)” value under setting [5] turned out to be 99.93%. The “HPLC purity (%)” value reads like this: under setting [6], 99.90%; (40 ± 2° C./75 ± 5% RH, Initial) 99.94%. The PXRD entry was “Amorphous” under setting [1]; “Amorphous” under setting [2]; “Amorphous” under setting [3]; “Amorphous” (25 ± 2° C./60 ± 5% RH, Initial); “Amorphous” under setting [4]; “Amorphous” under setting [5]. The PXRD result by setting is: under setting [6], “Amorphous”; (40 ± 2° C./75 ± 5% RH, Initial) “Amorphous”. Moreover, where the note is “packed in LDPE/triple laminated bags, up to 6 months at real and accelerated conditions, up to about 40° C., about 25% to about 75% RH”, the “solid form on storage” value is on record as “the amorphous character was retained”. The “stability at real time and accelerated conditions” value (stored at 25±2° C./60±5% RH for 6 months and at 40±2° C./75±5% RH for 6 months) was “stable”.
